Test results: patent US5972961A, “4-aryl-3-aminoquinoline-2-one derivatives as potassium channel modulators” (Bristol-Myers Squibb Company, priority 1998, dated 1999)

What follows are compounds tested on cortical infarct volume after middle cerebral artery occlusion (assay: Permanent focal ischemia, middle cerebral artery occlusion (MCAO model)). Conditions: 0.001 mg/kg intravenous single bolus 30 minutes after MCAO; vs vehicle-treated control; infarct measured 24 hours after MCAO.
Type: in vivo, spontaneously hypertensive rat
Description: To determine the ability of these compounds to reduce cell loss resulting from neuronal ischemia, a standard rodent model of permanent focal ischemia, involving occlusion of the middle cerebral artery in the spontaneously hypertensive rat (MCAO model) was employed [Tamura, A., et al., Journal of Cerebral Blood Flow and Metabolism, Volume 1, 53-60, (1981)].
Selected compounds have been evaluated in the focal stroke model involving permanent middle cerebral artery occlusion (MCAO) in the spontaneously hypertensive rat. This procedure results in a reliably large neocortical infarct volume that is measured by means of vital dye exclusion in serial slices through the brain 24 hours after MCAO. In the present test, compounds were administered using an intravenous route of administration at 30 minutes after occlusion.
For Nc1c(-c2cc(Cl)ccc2O)c2cc(C(F)(F)F)ccc2[nH]c1=O [Example 2, 3-Amino-4-(5-chloro-2-hydroxyphenyl)-6-(trifluoromethyl)quinolin-2(1H)-one], the “reduction of cortical infarct volume” value was “about 14%”.

What follows are compounds tested on cloned mammalian (mSlo or hSlo) BK channels (assay: BK-mediated outward current in Xenopus oocytes, two-electrode voltage clamp). Conditions: at 20 μM; expressed as percent increase over BK current in controls; IBTX-sensitive current; at least 5 oocytes.
Type: cell-based
Procedure: The ability of compounds described in the present invention to open BK channels and increase whole-cell outward (K^+) BK-mediated currents was assessed under voltage-clamp conditions by determining their ability to increase cloned mammalian (mSlo or hSlo) BK-mediated outward current heterologously expressed in Xenopus oocytes [Butler, A., et al., Science, 261: 221-224 (1993); and Dworetzky, S. I., et al., Mol. Brain Res., 27: 189-193 (1994)]. The two BK constructs employed represent nearly structurally identical homologous proteins, and have proven to be pharmacologically identical in our tests. To isolate BK current from native (background, non-BK) current, the specific and potent BK channel-blocking toxin iberiotoxin (IBTX) [Galvez, A., et al., J. Biol. Chem., 265: 11083-11090 (1990)] was employed at a supramaximal concentration (50 nM). The relative contribution of BK channels current to total outward current was determined by subtraction of the current remaining in the presence of IBTX (non-BK current) from the current profiles obtained in all other experimental conditions (control, drug, and wash). […] All compounds were tested in at least 5 oocytes and are reported at the single concentration of 20 μM; the effect of the selected compounds of Formula I on BK current was expressed as the percent of control IBTX-sensitive current and is listed in Table I. Recordings were accomplished using standard two-electrode voltage clamp techniques [Stuhmer, W., et al., Methods in Enzymology, Vol. 207: 319-339 (1992)]; voltage-clamp protocols consisted of 500-750 ms duration step depolarizations from a holding potential of -60 mV to +140 mV in 20 mV steps. The experimental media (modified Barth's solution) consisted of (in mM): NaCl (88), NaHCO3 (2.4), KCl (1.0), HEPES (10), MgSO4 (0.82), Ca(NO3)2 (0.33), CaCl2 (0.41); pH 7.5.
For Nc1c(-c2cc(Cl)ccc2O)c2cc(C(F)(F)F)ccc2[nH]c1=O [Example 2, 3-Amino-4-(5-chloro-2-hydroxyphenyl)-6-(trifluoromethyl)quinolin-2(1H)-one], the “BK Current” value was “++ (++ = > 150%)”.
O=c1[nH]c2ccc(C(F)(F)F)cc2c(-c2cc(Cl)ccc2O)c1NS(=O)(=O)C(F)(F)F [Example 5, N-[4-(5-Chloro-2-hydroxyphenyl)-2-oxo-6-(trifluoromethyl)-1H-quinolin-3-yl]trifluoromethanesulfonamide] was tested, and the “BK Current” value was “++ (++ = > 150%)”.
For O=C(Nc1c(-c2cc(Cl)ccc2O)c2cc(C(F)(F)F)ccc2[nH]c1=O)c1ccccc1 [Example 10, N-[4-(5-Chloro-2-hydroxyphenyl)-2-oxo-6-(trifluoromethyl)-1H-quinolin-3-yl]benzamide], the “BK Current” value was “+ (+ = 100-150%)”.
With Nc1c(-c2cc(Cl)ccc2O)c2ccccc2[nH]c1=O [Example 14, 3-Amino-4-(5-chloro-2-hydroxyphenyl)quinolin-2(1H)-one] the “BK Current” value was “+ (+ = 100-150%)”.
For O=C(Nc1c(-c2cc(Cl)ccc2O)c2cc(C(F)(F)F)ccc2[nH]c1=O)OCc1ccccc1 [Example 17, N-[4-(5-Chloro-2-hydroxyphenyl)-2-oxo-6-(trifluoromethyl)-1H-quinolin-3-yl]aminocarboxylic acid, phenylmethyl ester], the “BK Current” value was “++ (++ = > 150%)”.
Nc1c(-c2cc(Cl)ccc2O)c2cc([N+](=O)[O-])ccc2[nH]c1=O [Example 19, 3-Amino-4-(5-chloro-2-hydroxyphenyl)-6-nitroquinolin-2(1H)-one] was tested, and the “BK Current” value was “++ (++ = > 150%)”.
For O=C(Nc1c(-c2cc(Cl)ccc2O)c2cc(C(F)(F)F)ccc2[nH]c1=O)c1ccc(O)cc1 [Example 29, N-[4-(5-Chloro-2-hydroxyphenyl)-2-oxo-6-(trifluoromethyl)-1H-quinolin-3-yl]-4-hydroxybenzamide], the “BK Current” value was “+ (+ = 100-150%)”.
COc1ccc(CC(=O)Nc2c(-c3cc(Cl)ccc3O)c3cc(C(F)(F)F)ccc3[nH]c2=O)cc1 [Example 32, N-[4-(5-Chloro-2-hydroxyphenyl)-2-oxo-6-(trifluoromethyl)-1H-quinolin-3-yl]-(4-methoxyphenyl)acetamide] was tested, and the “BK Current” value was “+ (+ = 100-150%)”.
With Nc1c(-c2cc(Cl)ccc2O)c2cc(Cl)c(C(F)(F)F)cc2[nH]c1=O [Example 43, 3-Amino-4-(5-chloro-2-hydroxyphenyl)-6-chloro-7-(trifluoromethyl)quinolin-2(1H)-one] the “BK Current” value was “+ (+ = 100-150%)”.
Nc1c(-c2cc(Cl)ccc2O)c2c(C(F)(F)F)c(Cl)ccc2[nH]c1=O [Example 44, 3-Amino-4-(5-chloro-2-hydroxyphenyl)-6-chloro-5-(trifluoromethyl)quinolin-2(1H)-one] was tested, and the “BK Current” value was “+ (+ = 100-150%)”.
With O=c1[nH]c2ccc(C(F)(F)F)cc2c(-c2cc(Cl)ccc2O)c1NS(=O)(=O)c1ccc([N+](=O)[O-])cc1 [Example 64, N-[4-(5-Chloro-2-hydroxyphenyl)-2-oxo-6-(trifluoromethyl)-1H-quinolin-3-yl]-4-nitrobenzene-sulfonamide] the “BK Current” value was “++ (++ = > 150%)”.
With O=c1[nH]c2ccc(C(F)(F)F)cc2c(-c2cc(Cl)ccc2O)c1NS(=O)(=O)c1ccc(F)cc1 [Example 66, N-[4-(5-Chloro-2-hydroxyphenyl)-2-oxo-6-(trifluoromethyl)-1 H-quinolin-3-yl]-(4-fluorobenzene)sulfonamide] the “BK Current” value was “++ (++ = > 150%)”.
In the case of Cn1c(=O)c(N)c(-c2cc(Cl)ccc2O)c2cc(C(F)(F)F)ccc21 [Example 68, 3-Amino-4-(5-chloro-2-hydroxy-phenyl)-1-methyl-6-(trifluoro-methyl)quinolin-2(1H)-one], the “BK Current” value is reported as “+ (+ = 100-150%)”.
Nc1c(-c2ccc(O)c(Cl)c2)c2cc(C(F)(F)F)ccc2[nH]c1=O [Example 71, 3-Amino-4-(3-chloro-4-hydroxy-phenyl)-6-(trifluoromethyl)quinolin-2(1H)-one] was tested, and the “BK Current” value was “+ (+ = 100-150%)”.
